In patent US8143227B2, “Azithromycin for treatment of skin disorders” (priority 2008, dated 2012):

Legend:
[1] = Gastrointestinal side effects monitoring; type: in vivo, human; settings: 40, 80, or 120 mg/day; 42 days treatment plus 4 weeks after cessation
From the text: The subjects of Example 1 were monitored for the presence of gastrointestinal adverse effects during the six weeks (42 days) of treatment with the daily low-dose azithromycin of the invention and for an additional 4 weeks (total of 70 days) following cessation of treatment.

[2] = tested on: moderate to severe facial acne vulgaris; experiment: Additional low dosage regimens, lesion counts; type: in vivo, human
Procedure: Five male subjects and five female subjects with moderate to severe facial acne vulgaris, having a mean age of 19.6 years, were treated either with 25 mg of oral azithromycin daily or with 80 mg of oral azithromycin every other day. Each of the ten subjects had acne nodules. The male subjects received the 25 mg per day regimen and the female subjects received the 80 mg every other day regimen. Treatment was continued for a duration of 6 weeks. The numbers of facial inflammatory lesions: papules, pustules, and nodules, and non-inflammatory lesions: open and closed comedones, were counted at the beginning of treatment and again after 3 weeks of treatment and after 6 weeks of treatment. Additionally, nodules were counted independently at each of these visits. Additionally, during the treatment study, each subject reported the occurrence of any adverse effects. The results of this study for the 25 mg/day regimen are shown in Table 7 and for the 80 mg every other day regiment in Table 8. In these tables, the numbers represent the mean number of lesions in the four subjects of each group. The % decrease from Day 0 was calculated as the mean of the differences for each of the parameters (inflammatory lesions, non-inflammatory lesion and nodules) for each individual subject on Day 21 and Day 42.

[3] = tested on: Staphylococcus aureus; settings: Neu 1991; relative to P. acnes; cited from earlier work
[4] = tested on: acne; settings: Kus 2005, cited from earlier work
[5] = tested on: acne; settings: Elewski, cited from earlier work
[6] = 25 mg/day for 6 weeks, male subjects, Day 0 (beginning of treatment)
[7] = 25 mg/day for 6 weeks, male subjects, Day 21
[8] = 25 mg/day for 6 weeks, male subjects, Day 42
[9] = 80 mg every other day for 6 weeks, female subjects, Day 0 (beginning of treatment)
[10] = 80 mg every other day for 6 weeks, female subjects, Day 21
[11] = 80 mg every other day for 6 weeks, female subjects, Day 42

Compound: CC[C@H]1OC(=O)[C@H](C)[C@@H](O[C@H]2C[C@@](C)(OC)[C@@H](O)[C@H](C)O2)[C@H](C)[C@@H](O[C@@H]2O[C@H](C)C[C@H](N(C)C)[C@H]2O)[C@](C)(O)C[C@@H](C)CN(C)[C@H](C)[C@@H](O)[C@]1(C)O [Azithromycin, 9-deoxo-9a-aza-9a-methyl-9a-homoerythromycin A]
- gastrointestinal side effects [1]: no gastrointestinal side effects were reported
- effectiveness in treating skin disorders such as acne in adults ([2]; 25 mg per day, daily): effective
- Inflammatory lesions (mean number) [2, 6]: 37.4
- Nodules (mean number) [2, 6]: 3.0
- Non-inflammatory lesions (mean number) [2, 6]: 12.6
- Inflammatory lesions % Decrease from Day 0 [2, 7]: 38.0%
- Inflammatory lesions (mean number) [2, 7]: 22.8
- Nodules % Decrease from Day 0 [2, 7]: 45.0%
- Nodules (mean number) [2, 7]: 1.6
- Non-inflammatory lesions % Decrease from Day 0 [2, 7]: 18.8%
- Non-inflammatory lesions (mean number) [2, 7]: 10.2
- Inflammatory lesions % Decrease from Day 0 [2, 8]: 41.0%
- Inflammatory lesions (mean number) [2, 8]: 22.0
- Nodules % Decrease from Day 0 [2, 8]: 58.3%
- Nodules (mean number) [2, 8]: 1.2
- Non-inflammatory lesions % Decrease from Day 0 [2, 8]: 34.3%
- Non-inflammatory lesions (mean number) [2, 8]: 8.4
- effectiveness in treating skin disorders such as acne ([2]; 80 mg every other day): effective
- Inflammatory lesions (mean number) [2, 9]: 24.4
- Nodules (mean number) [2, 9]: 3.8
- Non-inflammatory lesions (mean number) [2, 9]: 48.6
- Inflammatory lesions % Decrease from Day 0 [2, 10]: 34.0%
- Inflammatory lesions (mean number) [2, 10]: 16.0
- Nodules % Decrease from Day 0 [2, 10]: 76.0%
- Nodules (mean number) [2, 10]: 1.0
- Non-inflammatory lesions % Decrease from Day 0 [2, 10]: 18.5%
- Non-inflammatory lesions (mean number) [2, 10]: 41.2
- Inflammatory lesions % Decrease from Day 0 [2, 11]: 15.5%
- Inflammatory lesions (mean number) [2, 11]: 20.4
- Nodules % Decrease from Day 0 [2, 11]: 58.0%
- Nodules (mean number) [2, 11]: 1.8
- Non-inflammatory lesions % Decrease from Day 0 [2, 11]: 30.1%
- Non-inflammatory lesions (mean number) [2, 11]: 31.6
- MIC against Staphylococcus aureus [3]: higher than that for P. acnes
- efficacy in the treatment of acne ([4]; 500 mg 3, then 2 consecutive days per week, then once weekly, 4 weeks each): as effective as doxycycline
- subjects who left the study due to gastrointestinal side effects ([4]; of 25 subjects administered azithromycin): two
- improvement in acne ([5]; 500 mg day 1, then 250 mg/day for 4 days, from 1st and 15th of each month, 3 months): all patients treated with this azithromycin regimen showed improvement
- subjects who experienced gastrointestinal side effects ([5]; same regimen): only one of twenty subjects
